Assay results published in patent publication US10040781B2, “Tank-binding kinase inhibitor compounds” (Gilead Sciences, Inc., priority 2014, dated 2018).

Experiments:
[1] = target: TBK1 (Homo sapiens (Human), UniProt Q9UHD2); assay: TBK1 TR-FRET enzymatic assay;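 also: phosphorylation of a biotinylated Ser/Thr peptide by purified full-length recombinant TBK1, read by TR-FRET after 240 min at 25 °C, IC50 is the geometric mean of at least four runs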
[2] = target: hJAK2 (Homo sapiens (Human), UniProt O60674); assay: hJAK2 LANCE TR-FRET enzymatic assay; format: biochemical; details: read-out: JAK2 IC50
[3] = target: IKKε (Homo sapiens (Human), UniProt Q14164); assay: IKKε TR-FRET enzymatic assay; format: biochemical; details: read-out: IKKe IC50
Sequence of IKKε (Q14164 whole entry): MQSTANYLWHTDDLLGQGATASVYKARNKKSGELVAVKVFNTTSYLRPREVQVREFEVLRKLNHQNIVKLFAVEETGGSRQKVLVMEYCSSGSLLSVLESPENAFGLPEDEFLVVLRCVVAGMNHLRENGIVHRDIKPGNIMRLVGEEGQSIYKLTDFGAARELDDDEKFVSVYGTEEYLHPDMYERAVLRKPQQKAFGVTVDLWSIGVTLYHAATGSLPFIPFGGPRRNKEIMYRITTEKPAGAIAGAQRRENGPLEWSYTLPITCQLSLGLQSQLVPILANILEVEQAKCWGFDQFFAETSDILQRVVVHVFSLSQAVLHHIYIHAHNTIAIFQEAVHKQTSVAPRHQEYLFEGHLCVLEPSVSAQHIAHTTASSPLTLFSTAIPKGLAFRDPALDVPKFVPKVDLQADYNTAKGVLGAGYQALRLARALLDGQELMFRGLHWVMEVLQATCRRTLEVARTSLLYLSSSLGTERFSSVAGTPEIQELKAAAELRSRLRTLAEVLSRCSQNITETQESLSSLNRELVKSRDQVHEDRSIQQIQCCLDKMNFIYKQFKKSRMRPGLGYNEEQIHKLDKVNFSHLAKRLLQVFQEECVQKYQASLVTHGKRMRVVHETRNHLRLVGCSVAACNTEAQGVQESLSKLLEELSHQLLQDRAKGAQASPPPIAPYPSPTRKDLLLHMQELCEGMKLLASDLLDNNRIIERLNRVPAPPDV

Sequence of TBK1 (Q9UHD2 whole entry): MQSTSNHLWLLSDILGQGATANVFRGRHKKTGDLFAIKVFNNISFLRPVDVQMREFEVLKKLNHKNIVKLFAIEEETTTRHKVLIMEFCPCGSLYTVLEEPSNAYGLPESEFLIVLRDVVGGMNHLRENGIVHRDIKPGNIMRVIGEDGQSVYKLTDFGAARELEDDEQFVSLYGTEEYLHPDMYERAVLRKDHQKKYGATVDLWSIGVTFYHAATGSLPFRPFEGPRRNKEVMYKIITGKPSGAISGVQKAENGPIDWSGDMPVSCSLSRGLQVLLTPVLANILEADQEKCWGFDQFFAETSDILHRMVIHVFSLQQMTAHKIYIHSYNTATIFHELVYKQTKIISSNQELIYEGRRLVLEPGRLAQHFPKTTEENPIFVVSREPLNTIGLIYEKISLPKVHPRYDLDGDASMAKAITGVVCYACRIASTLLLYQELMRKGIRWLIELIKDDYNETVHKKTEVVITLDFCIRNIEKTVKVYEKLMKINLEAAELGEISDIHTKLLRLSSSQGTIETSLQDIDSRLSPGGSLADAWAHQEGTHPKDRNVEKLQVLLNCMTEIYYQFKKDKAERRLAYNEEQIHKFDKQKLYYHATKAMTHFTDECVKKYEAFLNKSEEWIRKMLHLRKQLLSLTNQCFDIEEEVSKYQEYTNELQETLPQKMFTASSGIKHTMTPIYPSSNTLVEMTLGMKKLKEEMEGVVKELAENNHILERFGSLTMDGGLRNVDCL
Sequence of hJAK2 (O60674 whole entry): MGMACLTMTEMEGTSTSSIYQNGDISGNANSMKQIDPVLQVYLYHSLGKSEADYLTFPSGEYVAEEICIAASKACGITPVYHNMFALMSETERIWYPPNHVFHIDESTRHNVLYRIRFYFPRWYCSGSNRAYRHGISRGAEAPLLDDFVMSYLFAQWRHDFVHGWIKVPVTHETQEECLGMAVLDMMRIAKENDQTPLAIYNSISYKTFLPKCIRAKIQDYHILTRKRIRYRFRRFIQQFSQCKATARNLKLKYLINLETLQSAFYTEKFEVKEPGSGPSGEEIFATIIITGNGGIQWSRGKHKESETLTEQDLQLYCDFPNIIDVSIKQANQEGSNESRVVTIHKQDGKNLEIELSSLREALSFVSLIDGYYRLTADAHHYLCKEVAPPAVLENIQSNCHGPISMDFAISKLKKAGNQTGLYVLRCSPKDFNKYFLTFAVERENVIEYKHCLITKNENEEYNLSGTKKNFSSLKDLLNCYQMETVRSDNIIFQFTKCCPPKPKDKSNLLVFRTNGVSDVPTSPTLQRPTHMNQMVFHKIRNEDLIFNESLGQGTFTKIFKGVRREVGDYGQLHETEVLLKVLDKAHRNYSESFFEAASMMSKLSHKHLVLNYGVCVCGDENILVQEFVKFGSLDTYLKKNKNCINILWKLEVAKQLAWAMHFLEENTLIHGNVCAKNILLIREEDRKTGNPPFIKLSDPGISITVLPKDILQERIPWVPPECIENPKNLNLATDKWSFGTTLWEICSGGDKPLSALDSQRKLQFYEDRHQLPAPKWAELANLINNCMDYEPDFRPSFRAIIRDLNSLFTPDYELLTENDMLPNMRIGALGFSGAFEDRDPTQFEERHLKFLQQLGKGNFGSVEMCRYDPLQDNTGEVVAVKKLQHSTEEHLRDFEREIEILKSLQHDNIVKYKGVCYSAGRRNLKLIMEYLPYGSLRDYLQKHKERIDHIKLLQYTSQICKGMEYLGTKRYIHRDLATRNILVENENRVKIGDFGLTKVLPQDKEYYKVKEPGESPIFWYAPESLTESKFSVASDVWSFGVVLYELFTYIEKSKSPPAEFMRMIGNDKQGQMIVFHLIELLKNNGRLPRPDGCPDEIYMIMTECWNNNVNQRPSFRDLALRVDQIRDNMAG

Row | SMILES | IC50 [1] [nM] | IC50 [2] [nM] | IC50 [3] [nM]
1 | N#Cc1cc(-c2ncnc(Nc3ccc(N4CCN(C5COC5)CC4)cc3)n2)ccc1O[C@H]1CCN(C(=O)c2nccnc2N)C[C@H]1F [Example 339, 2-(((3R,4S)-1-(3-aminopyrazine-2-carbonyl)-3-fluoropiperidin-4-yl)oxy)-5-(4-((4-(4-(oxetan-3-yl)piperazin-1-yl)phenyl)amino)-1,3,5-triazin-2-yl)benzonitrile] | 14 | 54 | 58
2 | C[C@H](O)C(=O)N1CC[C@H](Oc2ccc(-c3ncnc(Nc4ccc5cnn(C)c5c4)n3)cc2C#N)[C@H](F)C1 [Example 344, 2-(((3R,4S)-3-fluoro-1-((S)-2-hydroxypropanoyl)piperidin-4-yl)oxy)-5-(4-((1-methyl-1H-indazol-6-yl)amino)-1,3,5-triazin-2-yl)benzonitrile] | 7 | 707 | 5
3 | N#Cc1cc(-c2ncnc(Nc3ccc(N4CCN(C5COC5)CC4)cc3)n2)ccc1O[C@H]1CCN(C(=O)C(O)CO)C[C@H]1F (stereo partly drawn) [Example 348, 2-(((3R,4S)-1-(2,3-dihydroxypropanoyl)-3-fluoropiperidin-4-yl)oxy)-5-(4-((4-(4-(oxetan-3-yl)piperazin-1-yl)phenyl)amino)-1,3,5-triazin-2-yl)benzonitrile] | 4 | 162 | 3
4 | CCn1cc(Nc2ncnc(-c3ccc(O[C@H]4CCN(C(=O)[C@H](C)O)C[C@H]4F)c(C#N)c3)n2)cn1 [Example 351, 5-(4-((1-ethyl-1H-pyrazol-4-yl)amino)-1,3,5-triazin-2-yl)-2-(((3R,4S)-3-fluoro-1-((S)-2-hydroxypropanoyl)piperidin-4-yl)oxy)benzonitrile] | 6 | 662 | 9
5 | C[C@H](O)C(=O)N1CC[C@H](Oc2ccc(-c3ncnc(Nc4cnn(CC(F)F)c4)n3)cc2C#N)[C@H](F)C1 [Example 352, 5-(4-((1-(2,2-difluoroethyl)-1H-pyrazol-4-yl)amino)-1,3,5-triazin-2-yl)-2-(((3R,4S)-3-fluoro-1-((S)-2-hydroxypropanoyl)piperidin-4-yl)oxy)benzonitrile] | 4 | ≥ 1000 | 4
6 | C[C@H](O)C(=O)N1CC[C@H](Oc2ccc(-c3ncnc(Nc4cnn(C5COC5)c4)n3)cc2C#N)[C@H](F)C1 [Example 353, 2-(((3R,4S)-3-fluoro-1-((S)-2-hydroxypropanoyl)piperidin-4-yl)oxy)-5-(4-((1-(oxetan-3-yl)-1H-pyrazol-4-yl)amino)-1,3,5-triazin-2-yl)benzonitrile] | 7 | 944 | 10
7 | C[C@H](O)C(=O)N1CC[C@H](Oc2ccc(-c3ncnc(Nc4cnn(C5CCOCC5)c4)n3)cc2C#N)[C@H](F)C1 [Example 354, 2-(((3R,4S)-3-fluoro-1-((S)-2-hydroxypropanoyl)piperidin-4-yl)oxy)-5-(4-((1-(tetrahydro-2H-pyran-4-yl)-1H-pyrazol-4-yl)amino)-1,3,5-triazin-2-yl)benzonitrile] | 6 | 309 | 5
8 | C[C@H](O)C(=O)N1CC[C@H](Oc2ccc(-c3ncnc(Nc4ccc(N5CCC[C@@H](O)C5)cc4)n3)cc2C#N)[C@H](F)C1 [Example 357, 2-(((3R,4S)-3-fluoro-1-((S)-2-hydroxypropanoyl)piperidin-4-yl)oxy)-5-(4-((4-((R)-3-hydroxypiperidin-1-yl)phenyl)amino)-1,3,5-triazin-2-yl)benzonitrile] | 4 | 511 | 2
9 | C[C@H](O)C(=O)N1CC[C@H](Oc2ccc(-c3ncnc(Nc4cnc(N5CCN(C6COC6)CC5)c(F)c4)n3)cc2C#N)[C@H](F)C1 [Example 358, 2-(((3R,4S)-3-fluoro-1-((S)-2-hydroxypropanoyl)piperidin-4-yl)oxy)-5-(4-((5-fluoro-6-(4-(oxetan-3-yl)piperazin-1-yl)pyridin-3-yl)amino)-1,3,5-triazin-2-yl)benzonitrile] | 6 | ≥ 1000 | 11

Continued, values first:

Row | IC50 [1] [nM] | IC50 [2] [nM] | IC50 [3] [nM] | SMILES
10 | 4 | 122 | 9 | N#Cc1cc(-c2ncnc(Nc3ccc(N4CCN(C5COC5)CC4)cc3)n2)ccc1O[C@H]1CCN(C(=O)c2cncc(N)n2)C[C@H]1F [Example 340, 2-(((3R,4S)-1-(6-aminopyrazine-2-carbonyl)-3-fluoropiperidin-4-yl)oxy)-5-(4-((4-(4-(oxetan-3-yl)piperazin-1-yl)phenyl)amino)-1,3,5-triazin-2-yl)benzonitrile]
11 | 2 | 496 | 1 | C[C@H](O)C(=O)N1CC[C@H](Oc2ccc(-c3ncnc(Nc4ccc(N5CC(C)(O)C5)cc4)n3)cc2C#N)[C@H](F)C1 [Example 342, 2-(((3R,4S)-3-fluoro-1-((S)-2-hydroxypropanoyl)piperidin-4-yl)oxy)-5-(4-((4-(3-hydroxy-3-methylazetidin-1-yl)phenyl)amino)-1,3,5-triazin-2-yl)benzonitrile]
12 | 4 | 258 | 2 | Cn1ncc2ccc(Nc3ncnc(-c4ccc(O[C@H]5CCN(C(=O)CO)C[C@H]5F)c(C#N)c4)n3)cc21 [Example 343, 2-(((3R,4S)-3-fluoro-1-(2-hydroxyacetyl)piperidin-4-yl)oxy)-5-(4-((1-methyl-1H-indazol-6-yl)amino)-1,3,5-triazin-2-yl)benzonitrile]
13 | 3 | 511 | 1 | Cc1nn(C)c2cc(Nc3ncnc(-c4ccc(O[C@H]5CCN(C(=O)CO)C[C@H]5F)c(C#N)c4)n3)ccc12 [Example 346, 5-(4-((1,3-dimethyl-1H-indazol-6-yl)amino)-1,3,5-triazin-2-yl)-2-(((3R,4S)-3-fluoro-1-(2-hydroxyacetyl)piperidin-4-yl)oxy)benzonitrile]
14 | 4 | ≥ 1000 | 5 | Cc1nn(C)c2cc(Nc3ncnc(-c4ccc(O[C@H]5CCN(C(=O)[C@H](C)O)C[C@H]5F)c(C#N)c4)n3)ccc12 [Example 347, 5-(4-((1,3-dimethyl-1H-indazol-6-yl)amino)-1,3,5-triazin-2-yl)-2-(((3R,4S)-3-fluoro-1-((S)-2-hydroxypropanoyl)piperidin-4-yl)oxy)benzonitrile]
15 | 2 | 98 | 2 | CC(C)n1cc(Nc2ncnc(-c3ccc(O[C@H]4CCN(C(=O)CO)C[C@H]4F)c(C#N)c3)n2)cn1 [Example 349, 2-(((3R,4S)-3-fluoro-1-(2-hydroxyacetyl)piperidin-4-yl)oxy)-5-(4-((1-isopropyl-1H-pyrazol-4-yl)amino)-1,3,5-triazin-2-yl)benzonitrile]
16 | 3 | 231 | 5 | CC(C)n1cc(Nc2ncnc(-c3ccc(O[C@H]4CCN(C(=O)[C@H](C)O)C[C@H]4F)c(C#N)c3)n2)cn1 [Example 350, 2-(((3R,4S)-3-fluoro-1-((S)-2-hydroxypropanoyl)piperidin-4-yl)oxy)-5-(4-((1-isopropyl-1H-pyrazol-4-yl)amino)-1,3,5-triazin-2-yl)benzonitrile]
17 | 2 | 550 | 3 | N#Cc1cc(-c2ncnc(Nc3ccc(N4CCN(C5COC5)CC4)cc3)n2)ccc1O[C@H]1CCN(C(=O)c2cn[nH]c2)C[C@H]1F [Example 356, 2-(((3R,4S)-3-fluoro-1-(1H-pyrazole-4-carbonyl)piperidin-4-yl)oxy)-5-(4-((4-(4-(oxetan-3-yl)piperazin-1-yl)phenyl)amino)-1,3,5-triazin-2-yl)benzonitrile]
